Assay results reported in patent publication US20210130549A1, “IPN hydrogel for preparation and application” (EASTING BIOTECHNOLOGY COMPANY LIMITED, priority 2019, published 2021).

Assay: Hydrophilic drug release from drug-containing IPN hydrogel in sustained-release solution (HPLC, 272 nm)
Type: physicochemical
Details: from release curve FIG. 4; drug-loaded IPN hydrogel; sampling 30 minutes to 72 hours
Description: The drug-containing hydrogel was placed in a sustained-release solution for drug release testing and taking the samples from sustained-release solution within a fixed time.
Taking the samples with fixed time and test releasing concentration. The sampling time is 30 minutes, 60 minutes, 90 minutes, 180 minutes, 8 hours, 24 hours, 48 hours, and 72 hours.
The subsequent drug concentration was analyzed by high performance liquid chromatography (HPLC). The water-based drug used caffeine for drug release, and the absorption wavelength of caffeine was 272 nm for measurement.

Cn1c(=O)c2c(ncn2C)n(C)c1=O [caffeine]
release amount of caffeine in water: ≥ 40%
